Two compounds from patent US10624948B2, “Use of cell-permeable peptide inhibitors of the JNK signal transduction pathway for the treatment of various diseases” (Xigen Inflammation Ltd., priority 2013, dated 2020) can be followed below.

Each structure is given as a SMILES string.

The subject of data set [1] is Sprague-Dawley rats, STZ diabetic nephropathy. Description: Rat model of diabetic nephropathy (STZ, high fat diet). In kind it is in vivo. To be noted: Losartan 25 mg/kg po daily. As to the method: Losartan has been used as a positive control. Seventy-four male Sprague-Dawley rats (200-250 g; including 4 spare animals) from Charles River (Margate, Kent) were used. Rats were housed in pairs in polypropylene cages with free access to a high fat diet (D12492 60% of kcal derived from fat) and tap water at all times. The diet has been purchased from Research Diets, New Jersey, USA. All animals have been maintained at 21±4° C. and 55±20% humidity on a normal light (lights on: 07:00-19:00). […] About 40 animals have been assigned to Cohort A and the remaining 30 to Cohort B, balanced as far as possible for body weight, plasma glucose and food and water intake. […] In all groups, food and water intake have been determined twice weekly (on the day of iv dosing and on water refill days. Blood glucose has been determined monthly. Samples were collected as detailed previously by glucometer (One Touch Ultra2). Blood samples have been taken in the freely fed state (beginning at approx. 09:00). Animals have been dosed immediately afterwards by the respective route to a timed schedule. Subsequent to dosing, each animal has been placed in a metabolism cage with free access to food and water for a 24 h period. To reduce evaporation, the glass urine collectors have been placed in a polystyrene container (Sca-online, UK) which was filled with ice. […] Food consumed and water drunk has also been calculated. […]

Data set [2] relates to post-operative intraocular inflammation. To be noted: Dexamethasone (N = 50).
Method: The objectives of the SDD-1002-035 study were to evaluate the efficacy and safety of a single sub-conjunctival injection of XG-102 90 or 900 μg administered within maximally 3 hours after the end of the surgical procedure compared to dexamethasone eye drops administered 4 times/day for 21 days in post-operative intraocular inflammation.
In accordance with this trial's primary objective, the primary outcome was evaluated by the mean anterior chamber cells grade at day 28 post-administration of the sub-conjunctival injection of study treatment comparing XG-102 900 μg with dexamethasone eye drops.
The present trial was a randomized (1:1:1), controlled, double-blind, multicenter non-inferiority clinical trial with three parallel groups of equal size. Randomization, which was blocked by center, was performed using a web-based, secure, randomization system. […]
The primary objective was evaluated by the mean anterior chamber cells grade at day 28 post-administration of the sub-conjunctival administration of study treatment. […]
Data set [3] can be described thus: Phase II trial, safety and tolerability (adverse events). As to the method:
The criteria for evaluation of safety were:
An AE is therefore any unfavorable and unintended sign, symptom or disease temporally associated with the use of a medicinal product, whether or not considered related to the medicinal product.
Patients were analyzed as treated, i.e. according to the treatment which they received. The safety set was the primary analysis set for the safety analysis.
The present study was a double-blind study. All patients who were randomized and for whom the sub-conjunctival injection was started are included in the safety analysis by dose group. […] If the study treatment eye drops were stopped prematurely (i.e. before day 21), the patients concerned continued follow-up until day 28, in accordance with the study protocol.
Investigators assessed (in a blinded manner) the relationship of each reported AE to any of the study treatments. An event was considered to be related to study treatment if the Investigator ticked either ‘possible’ or ‘probable’ as the reply to this question.

For `CCCCc1nc(Cl)c(CO)n1Cc1ccc(-c2ccccc2-c2nn[nH]n2)cc1` [Losartan], the body weight entry in data set [1] is reported as “significantly lower”.
Consider `C[C@@H]1C[C@H]2[C@@H]3CCC4=CC(=O)C=C[C@]4(C)[C@@]3(F)[C@@H](O)C[C@]2(C)[C@@]1(O)C(=O)CO` [dexamethasone, reference compound], for which the “Premature withdrawal of study tx eye drops, # patients (%)” value in data set [2] is 3 (6.0%). Further, the “Adverse events which led to an interruption of study treatment” value in data set [3] (Dexamethasone dose group) is on record as 3 (5.5%) number of events (%). For the same compound, in data set [3] (dexamethasone), the “patients with Intraocular pressure increased” value is reported as 14%. Also, the “percentage of patients who experienced an AE within 24 hours” value in data set [3] (dexamethasone group) is given as 30%.
